Reference: PubChem BioAssay AID330 (DTP/NCI, 2004)
“And” between values parts separate entries of the source, which are not always exact repeats. Identical values can stand only once. Toxic doses and inconclusive results are not listed. Square brackets hold non-standard residues; d marks the D form. Peptide text beside a SMILES is read from it. ξ: configuration not given here. ξPhe(4-N(CH2CH2Cl)2) = NC(Cc1ccc(N(CCCl)CCCl)cc1)C(=O)O

Tested on: P388 leukemia ip, CD2F1 mice, survival T/C
Assay: NCI In Vivo Anticancer Drug Screen. Data for tumor model P388 Leukemia (intraperitoneal) in CD2F1 (CDF1) mice
Settings: endpoint: median survival time, higher = longer survival
How it was run: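 Mice carrying the transplanted tumor received test compound or vehicle. Survival was recorded in each group, and the value is the treated-group measurement divided by that of the vehicle-treated control group.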

[1] = dose: 6.25 mg/kg/injection, schedule: Q01DX009 (ip), vehicle: Klucel (hydroxypropylcellulose) (HPC)
[2] = dose: 12.5 mg/kg/injection, schedule: Q01DX009 (ip), vehicle: Klucel (hydroxypropylcellulose) (HPC)
[3] = dose: 25.0 mg/kg/injection, schedule: Q01DX009 (ip), vehicle: Klucel (hydroxypropylcellulose) (HPC)
[4] = dose: 50.0 mg/kg/injection, schedule: Q01DX009 (ip), vehicle: Klucel (hydroxypropylcellulose) (HPC)
[5] = dose: 50.0 mg/kg/injection, schedule: Q01DX005 (ip), vehicle: saline with Tween-80
[6] = dose: 100.0 mg/kg/injection, schedule: Q01DX005 (ip), vehicle: saline with Tween-80
[7] = dose: 200.0 mg/kg/injection, schedule: Q01DX005 (ip), vehicle: saline with Tween-80
[8] = dose: 100.0 mg/kg/injection, schedule: Q04DX002 (ip), vehicle: saline with Tween-80
[9] = dose: 200.0 mg/kg/injection, schedule: Q04DX002 (ip), vehicle: saline with Tween-80
[10] = dose: 60.0 mg/kg/injection, schedule: Q01DX005 (ip), vehicle: saline with Tween-80

For `COc1cc2c(cc1OC)C(C)(C)N(Cc1ccccc1)C(C)C2(C)C` (configuration not stated), the T/C (dose: 3.12 mg/kg/injection, schedule: Q01DX009 (ip), vehicle: Klucel (hydroxypropylcellulose) (HPC)) was 105 % of control, the T/C [1] was 105 % of control and the T/C [2] was 114 % of control. For the same compound, the T/C [3] was 107 % of control and the T/C [4] was 112 % of control.
For `COc1cc(NC(=O)CCl)ccc(=O)c1`, the T/C (dose: 12.5 mg/kg/injection, schedule: Q01DX009 (ip), vehicle: saline with Tween-80) was 95 % of control and the T/C (dose: 25.0 mg/kg/injection, schedule: Q01DX009 (ip), vehicle: saline with Tween-80) was 113 % of control.
`O=C(OC(c1ccccc1)c1ccccc1)C1CSCN1C(=O)OCc1ccccc1[N+](=O)[O-]` (configuration not stated) was tested, and the T/C [5] was 108 % of control, the T/C [6] was 110 % of control and the T/C [7] was 100 % of control.
In the case of `Cc1ncc([N+](=O)[O-])n1CCn1nnc2c1CCCC2`, the T/C (dose: 25.0 mg/kg/injection, schedule: Q04DX003 (ip), vehicle: saline) is reported as 100 % of control and 109 % of control, the T/C (dose: 50.0 mg/kg/injection, schedule: Q04DX003 (ip), vehicle: saline) is reported as 100 % of control and 109 % of control and the T/C (dose: 100.0 mg/kg/injection, schedule: Q04DX003 (ip), vehicle: saline) is reported as 115 % of control and 96 % of control. For the same compound, the T/C (dose: 200.0 mg/kg/injection, schedule: Q04DX003 (ip), vehicle: saline) was 99 % of control and 115 % of control.
For `C=C1C(C)C2C(Cc3ccccc3)NC(=O)C23C(OC(C)=O)/C=C/C(C)(O)CC(C)C/C=C/C3C1O` (configuration not stated), the T/C (dose: 3.13 mg/kg/injection, schedule: Q01DX009 (ip), vehicle: saline with Tween-80) was 121 % of control and the T/C (dose: 6.25 mg/kg/injection, schedule: Q01DX009 (ip), vehicle: saline with Tween-80) was 124 % of control.
In the case of `Cc1cc(N/N=C/c2ccnc3ccccc23)c2cc3c(cc2n1)OCO3`, the T/C (dose: 12.5 mg/kg/injection, schedule: Q01DX005 (ip), vehicle: Klucel (hydroxypropylcellulose) (HPC)) is reported as 90 % of control and 93 % of control, the T/C (dose: 25.0 mg/kg/injection, schedule: Q01DX005 (ip), vehicle: Klucel (hydroxypropylcellulose) (HPC)) is reported as 100 % of control and 105 % of control and the T/C (dose: 50.0 mg/kg/injection, schedule: Q01DX005 (ip), vehicle: Klucel (hydroxypropylcellulose) (HPC)) is reported as 103 % of control and 108 % of control.
With `Cc1ccc(C(=NN=C(c2ccc(C)cc2)c2ccc(C)cc2)c2ccc(C)cc2)cc1` the T/C [8] was 90 % of control and the T/C [9] was 93 % of control.
For `N#CNc1nc2ccccc2[nH]1`, the T/C [1] was 100 % of control, the T/C [2] was 103 % of control and the T/C [3] was 108 % of control. The T/C [4] was 101 % of control and the T/C (dose: 100.0 mg/kg/injection, schedule: Q01DX009 (ip), vehicle: Klucel (hydroxypropylcellulose) (HPC)) was 100 % of control.
In the case of `CCOC(=O)C(Cc1ccc(O)cc1)NC(=O)C1Cc2c([nH]c3ccccc23)C=N1` (configuration not stated), the T/C [10] is reported as 100 % of control, the T/C (dose: 120.0 mg/kg/injection, schedule: Q01DX005 (ip), vehicle: saline with Tween-80) is reported as 102 % of control and the T/C (dose: 240.0 mg/kg/injection, schedule: Q01DX005 (ip), vehicle: saline with Tween-80) is reported as 106 % of control.
For `CCCCCCCCCCCCCCN1CCSCC1`, the T/C (dose: 50.0 mg/kg/injection, schedule: Q01DX009 (ip), vehicle: saline) was 101 % of control and the T/C (dose: 100.0 mg/kg/injection, schedule: Q01DX009 (ip), vehicle: saline) was 99 % of control.
For `N#Cc1nc(CC(=O)c2ccc(Cl)cc2Cl)c(CC(=O)c2ccc(Cl)cc2Cl)nc1C#N`, the T/C (dose: 60.0 mg/kg/injection, schedule: Q01DX005 (ip), vehicle: saline) was 112 % of control and the T/C (dose: 120.0 mg/kg/injection, schedule: Q01DX005 (ip), vehicle: saline) was 106 % of control.
With `NC(=S)CCCCCC(N)=S` the T/C [5] was 103 % of control, the T/C [6] was 111 % of control and the T/C [7] was 103 % of control.
For `OCCN1CN(c2ccccc2)C(=S)N(c2ccccc2)C1`, the T/C (dose: 50.0 mg/kg/injection, schedule: Q01DX009 (ip), vehicle: saline with Tween-80) was 97 % of control, the T/C (dose: 100.0 mg/kg/injection, schedule: Q01DX009 (ip), vehicle: saline with Tween-80) was 100 % of control and the T/C (dose: 200.0 mg/kg/injection, schedule: Q01DX009 (ip), vehicle: saline with Tween-80) was 93 % of control.
With `CS(=O)(=O)CS(=O)(=O)OCCBr` the T/C (dose: 12.5 mg/kg/injection, schedule: Q01DX005 (ip), vehicle: saline with Tween-80) was 98 % of control, the T/C (dose: 25.0 mg/kg/injection, schedule: Q01DX005 (ip), vehicle: saline with Tween-80) was 123 % of control and the T/C [5] was 159 % of control. The T/C [6] was 226 % of control.
For `CCN1/C(=C\C2=C([O-])C(=C/c3sc4ccccc4[n+]3CC)/C2=O)Sc2ccccc21`, the T/C (dose: 60.0 mg/kg/injection, schedule: Q01DX005 (ip), vehicle: Klucel (hydroxypropylcellulose) (HPC)) was 103 % of control, the T/C (dose: 120.0 mg/kg/injection, schedule: Q01DX005 (ip), vehicle: Klucel (hydroxypropylcellulose) (HPC)) was 119 % of control and the T/C (dose: 240.0 mg/kg/injection, schedule: Q01DX005 (ip), vehicle: Klucel (hydroxypropylcellulose) (HPC)) was 86 % of control.
With `OC1(c2ccccc2)C(c2ccccc2)=C(c2ccccc2)C(c2ccc(CCc3ccc(C4=C(c5ccccc5)C(O)(c5ccccc5)C(c5ccccc5)=C4c4ccccc4)cc3)cc2)=C1c1ccccc1` (configuration not stated) the T/C (dose: 6.25 mg/kg/injection, schedule: Q01DX001 (ip), vehicle: Klucel (hydroxypropylcellulose) (HPC)) was 105 % of control, the T/C (dose: 12.5 mg/kg/injection, schedule: Q01DX001 (ip), vehicle: Klucel (hydroxypropylcellulose) (HPC)) was 111 % of control and the T/C (dose: 25.0 mg/kg/injection, schedule: Q01DX001 (ip), vehicle: Klucel (hydroxypropylcellulose) (HPC)) was 90 % of control. For the same compound, the T/C (dose: 50.0 mg/kg/injection, schedule: Q01DX001 (ip), vehicle: Klucel (hydroxypropylcellulose) (HPC)) was 94 % of control.
In the case of `CC[N+]1(CC)CCCCC1`, the T/C (dose: 3.12 mg/kg/injection, schedule: Q01DX009 (ip), vehicle: saline) is reported as 109 % of control, the T/C (dose: 6.25 mg/kg/injection, schedule: Q01DX009 (ip), vehicle: saline) is reported as 109 % of control and the T/C (dose: 12.5 mg/kg/injection, schedule: Q01DX009 (ip), vehicle: saline) is reported as 105 % of control.
In the case of `Cc1ncc2c(n1)CCC1=C2OS(=O)(=O)CC1N(C)C` (configuration not stated), the T/C [5] is reported as 115 % of control and the T/C [6] is reported as 97 % of control.
For `COC(=O)c1csc(-c2csc(CCNC(=O)c3ccccc3)n2)n1`, the T/C [8] was 93 % of control, the T/C [9] was 95 % of control and the T/C (dose: 400.0 mg/kg/injection, schedule: Q04DX002 (ip), vehicle: saline with Tween-80) was 96 % of control.
`O=C(c1ccccc1)c1c(CO[N+](=O)[O-])n([O-])c2ccccc2[n+]1=O` was tested, and the T/C (dose: 15.0 mg/kg/injection, schedule: Q01DX005 (ip), vehicle: saline with Tween-80) was 105 % of control, the T/C (dose: 30.0 mg/kg/injection, schedule: Q01DX005 (ip), vehicle: saline with Tween-80) was 109 % of control and the T/C [10] was 104 % of control and 109 % of control.
In the case of `COC1=CC(=O)C(C(C)=O)=C(C2(C)C(=O)CCCC2=O)C1=O`, the T/C [5] is reported as 106 % of control, the T/C [6] is reported as 89 % of control and the T/C [7] is reported as 104 % of control.
For `CCOC(=O)C(Cc1ccc(N(CCCl)CCCl)cc1)NC(=O)C(Cc1ccccc1)NC(=O)C(NC(=O)CNC(=O)C1CCCN1)C(C)C` (configuration not stated) (H-PGVF[ξPhe(4-N(CH2CH2Cl)2)]-OEt; configuration not given here), the T/C (dose: 10.0 mg/kg/injection, schedule: Q04DX003 (ip), vehicle: water) was 150 % of control, the T/C (dose: 20.0 mg/kg/injection, schedule: Q04DX003 (ip), vehicle: water) was 173 % of control and the T/C (dose: 40.0 mg/kg/injection, schedule: Q04DX003 (ip), vehicle: water) was 193 % of control.
In the case of `COc1ccc(/C=C(/C(=O)O)c2ccc(OC)cc2)cc1`, the T/C (dose: 100.0 mg/kg/injection, schedule: Q04DX003 (ip), vehicle: other) is reported as 100 % of control, the T/C (dose: 200.0 mg/kg/injection, schedule: Q04DX003 (ip), vehicle: other) is reported as 95 % of control and the T/C (dose: 400.0 mg/kg/injection, schedule: Q04DX003 (ip), vehicle: other) is reported as 100 % of control.
In the case of `COC(=O)c1ncn(C)c1O`, the T/C (dose: 60.0 mg/kg/injection, schedule: Q01DX005 (ip), vehicle: water) is reported as 103 % of control, the T/C (dose: 120.0 mg/kg/injection, schedule: Q01DX005 (ip), vehicle: water) is reported as 113 % of control and the T/C (dose: 240.0 mg/kg/injection, schedule: Q01DX005 (ip), vehicle: water) is reported as 104 % of control.
In the case of `CC(=O)N1c2ccccc2C23CCN4CC5=CCOC(O)C(C5CC42)C13` (configuration not stated), the T/C (dose: 20.0 mg/kg/injection, schedule: Q01DX009 (ip), vehicle: Klucel (hydroxypropylcellulose) (HPC)) is reported as 107 % of control, the T/C (dose: 40.0 mg/kg/injection, schedule: Q01DX009 (ip), vehicle: Klucel (hydroxypropylcellulose) (HPC)) is reported as 108 % of control and the T/C (dose: 80.0 mg/kg/injection, schedule: Q01DX009 (ip), vehicle: Klucel (hydroxypropylcellulose) (HPC)) is reported as 110 % of control. The T/C (dose: 160.0 mg/kg/injection, schedule: Q01DX009 (ip), vehicle: Klucel (hydroxypropylcellulose) (HPC)) was 118 % of control.
